Experimental data: PubChem BioAssay (NCI)
Values joined by “and” are separate entries in the source; they are usually repeats but may differ in a detail not shown here. Equal entries are not always repeated.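 Exposure lasted 48 hours, with cells grown in 96-well plates and compounds tested at five concentrations. At the GI50, growth is halved. The concentration for full growth arrest is given as TGI.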

Columns and labels:
Assay in all cases: NCI tumour cell line growth inhibition, 48 h
[1] = tested on: KM12 colon
[2] = tested on: SF-295 CNS
[3] = tested on: MCF7 breast
[4] = tested on: RPMI-8226 leukemia
[5] = tested on: SR leukemia
[6] = tested on: ACHN renal
[7] = tested on: T-47D breast
[8] = tested on: RXF 393 renal
[9] = tested on: TK-10 renal
[10] = tested on: HL-60(TB) leukemia

| Compound | TGI [1] [µM] | TGI [2] [µM] | TGI [3] [µM] | TGI [4] [µM] | TGI [5] [µM] | TGI [6] [µM] | TGI [7] [µM] | TGI [8] [µM] | TGI [9] [µM] | GI50 [1] [µM] | GI50 [2] [µM] | GI50 [3] [µM] | GI50 [4] [µM] | GI50 [5] [µM] | GI50 [6] [µM] | GI50 [7] [µM] | GI50 [8] [µM] | GI50 [9] [µM] | GI50 [10] [µM] | TGI [10] |
| --- | --- | --- | --- | --- | --- | --- | --- | --- | --- | --- | --- | --- | --- | --- | --- | --- | --- | --- | --- | --- |
| O=C(O)C(Br)C(Br)c1ccccc1[N+](=O)[O-] (stereo not drawn) | > 100 | > 100 | > 100 | > 100 | > 100 | > 100 | > 100 | > 100 | > 100 | – | – | – | – | – | – | – | – | – | – | – |
| CCCCCCNC(=O)Oc1ccc(/C(=C(\C)c2ccccc2)c2ccc(OCCN3CCCCC3)cc2)cc1 | 7.63 | 3.5 | 3.64 | 5.57 | 4.39 | 10.9 | 4.87 | 3.32 | 21.4 | 2.61 | 1.74 | 0.0428 | 2.38 | 1.73 | 2.85 | 1.14 | 1.52 | 7.85 | – | – |
| Oc1ccc(/C=N/Nc2nc3ccccc3s2)c(O)c1 | 15.8 | 35.4 | 9.39 | > 100 | 11.4 | 9.89 | > 100 | > 100 | 45.2 | 2.18 | 2.86 | 1.65 | 2.55 | 1.53 | 1.11 | 3.37 | 3.36 | 2.1 | – | – |
| O=C1NC(=O)C2(CCC(O)C2)c2cc[n+]([O-])cc21 (stereo not drawn) | > 100 | > 100 | > 100 | > 100 | > 100 | > 100 | > 100 | > 100 | > 100 | – | – | – | – | – | – | – | – | – | – | – |
| CCCCSCc1nc2nc(Cl)c(Cl)nc2[nH]1 | > 100 | 45.6 | 68 | 38.2 | 52.3 | 71.5 | 62.9 | 68.8 | 73.9 | – | – | – | – | – | – | – | – | – | – | – |
| COc1cc(-c2nn(C(=O)NS(=O)(=O)c3ccc(C)cc3)cc2-c2ccncc2)ccc1Cl | 43.5 | – | 26.2 | > 100 | 40.9 | 36.1 | 31.2 | 12 | 19.8 | 11 | – | 5.76 | 15.5 | 5.1 | 3.48 | 6.34 | 2.67 | 4.9 | 4.63 | 24.9 µM |
| COc1ccc(/C(Cl)=C(\C=O)c2ccc(OC)c(OC)c2)cc1OC | > 100 | 48.2 | > 100 | > 100 | > 100 | > 100 | – | 99.7 | > 100 | – | – | – | – | – | – | – | – | – | – | > 100 µM |
| O=C1C(Cl)=C(Nc2cccc(C(F)(F)F)c2)C(=O)N1Cc1ccccc1Cl | 33.5 | 24.9 | > 31.8 | > 23.5 | 28 | 17.1 | 40.7 | 10.4 | 37.5 | 12.1 | 2.39 | 4.21 | 2.17 | 3.72 | 4.84 | 12.8 | 1.12 | 14 | – | – |
| COc1ccc(OC)c(-c2cc(-c3ccccc3)nn2-c2ccc(S(N)(=O)=O)cc2)c1 | 21.6 | 29.2 | 16 | 4.84 | > 100 | 19.7 | – | – | 26 | 6.93 | 13.6 | 3.08 | 1.93 | 2.82 | 8.01 | – | – | 12.7 | 23.6 | > 100 µM |
| COc1ccc2[nH]c(-c3cccc(N(C)C)c3)cc(=O)c2c1 | – | – | > 100 | 0.844 | 1.73 | > 100 | – | 0.351 | > 100 | 0.393 | 3.71 | – | 0.443 | – | – | – | – | 19.8 | 0.231 | 0.592 µM and 0.569 µM |
| O=C(CCCNC(=O)OCc1ccccc1)OCc1ccc2c(c1)C(=O)c1ccccc1C2=O | > 100 | 83.9 | – | > 100 | > 100 | > 100 | – | 48.5 | > 100 | – | – | – | – | – | – | – | – | – | – | > 100 µM |
| O=C(N=Nc1c(O)[nH]c2c(Cl)cc(Cl)cc12)c1ccncc1 | > 100 | > 100 | > 100 | – | 69.2 | > 100 | – | 61.4 | > 100 | – | – | – | – | – | – | – | – | – | – | > 100 µM |
| CCOC(=O)c1c(C)n(CC(C)C)c2c1cc1oc(=O)c(=O)n3cnc2c13 | 38.3 | 33 | 45.3 | 37.2 | > 50 | 24.1 | – | 49.7 | 47.6 | 13.6 | 12.8 | 12.5 | 15.8 | 10.4 | 9.34 | – | 12.9 | 13.3 | 11.5 | 36.4 µM |
| CN(C)c1nc(N(C)C)n2nc(-c3ccccc3[N+](=O)[O-])nc2n1 | > 100 | > 100 | – | > 100 | > 100 | > 100 | – | > 100 | > 100 | – | – | – | – | – | – | – | – | – | – | > 100 µM |
